From ChEMBL document CHEMBL3763014, “Alkaloids from Oxytropis ochrocephala and antiproliferative activity of sophoridine derivatives against cancer cell lines” (Bioorg Med Chem Lett, 2016)

How the values were obtained:
Assay type in all cases: functional, cell-based
MDA-MB-231 = assay: Antiproliferative activity against human MDA-MB-231 cells after 3 days by SRB assay; settings: MDA-MB-231, 72 h
KB = assay: Antiproliferative activity against human KB cells after 3 days by SRB assay; settings: 72 h
[1] = Antiproliferative activity against human KBVIN cells after 3 days by SRB assay; settings: 72 h
A549 = assay: Antiproliferative activity against human A549 cells after 3 days by SRB assay; settings: A549, 72 h
MCF7 = assay: Antiproliferative activity against human MCF7 cells after 3 days by SRB assay; settings: MCF7, 72 h

IC50 (MDA-MB-231) | IC50 (KB) | IC50 (A549) | IC50 (MCF7) | Compound | IC50 [1]
67 µM | 74 µM | 74 µM | > 80 µM | COc1ccc(/C=C2\CC[C@@H]3[C@H]4CCCN5CCC[C@H](CN3C2=O)[C@@H]45)c(C)c1 | > 80 µM
> 40 µM | > 40 µM | > 40 µM | – | COc1cccc(OC)c1/C=C1\CC[C@@H]2[C@H]3CCCN4CCC[C@H](CN2C1=O)[C@@H]34 | > 40 µM
68 µM | 71 µM | > 80 µM | > 80 µM | COc1cccc(/C=C2\CC[C@@H]3[C@H]4CCCN5CCC[C@H](CN3C2=O)[C@@H]45)c1OC | > 80 µM
> 40 µM | > 40 µM | > 40 µM | – | O=C1/C(=C/c2ccc3c(c2)OCO3)CC[C@@H]2[C@H]3CCCN4CCC[C@H](CN12)[C@@H]34 | > 40 µM
> 40 µM | > 40 µM | > 40 µM | – | CCOc1cc(/C=C2\CC[C@@H]3[C@H]4CCCN5CCC[C@H](CN3C2=O)[C@@H]45)ccc1OCOC | > 40 µM
21.9 µM | 20.7 µM | 17.6 µM | 20.5 µM | CCOc1cc(/C=C2\CC[C@@H]3[C@H]4CCCN5CCC[C@H](CN3C2=O)[C@@H]45)ccc1OCc1ccccc1 | 21.6 µM
45 µM | 58 µM | 42 µM | 54 µM | COc1cc(/C=C2\CC[C@@H]3[C@H]4CCCN5CCC[C@H](CN3C2=O)[C@@H]45)ccc1C | 72 µM
> 40 µM | > 40 µM | > 40 µM | – | CN(C)c1ccc(/C=C2\CC[C@@H]3[C@H]4CCCN5CCC[C@H](CN3C2=O)[C@@H]45)cc1 | > 40 µM
0.018 µM | 4e-05 µM | 3e-05 µM | – | CC(=O)O[C@H]1C(=O)[C@@]2(C)[C@H]([C@H](OC(=O)c3ccccc3)[C@]3(O)C[C@H](OC(=O)[C@H](O)[C@@H](NC(=O)c4ccccc4)c4ccccc4)C(C)=C1C3(C)C)[C@]1(OC(C)=O)CO[C@@H]1C[C@@H]2O [PACLITAXEL] | 2.6 µM

Compound | IC50 (MDA-MB-231) | IC50 (KB) | IC50 (A549) | IC50 (MCF7) | IC50 [1]
O=c1cccc2n1C[C@@H]1CCCN3CCC[C@H]2[C@H]13 | > 40 µM | > 40 µM | > 40 µM | – | > 40 µM
O=C1CCC[C@@H]2[C@@H]3C[C@@H](CN12)[C@@H]1CCCCN1C3 | > 40 µM | > 40 µM | > 40 µM | – | > 40 µM
O[C@@H]1[C@H]2[C@H](O)CCCN2C[C@@H]1O | > 40 µM | > 40 µM | > 40 µM | – | > 40 µM
O=C1CCC[C@@H]2[C@H]3CCCN4CCC[C@H](CN12)[C@H]34 | > 40 µM | > 40 µM | > 40 µM | – | > 40 µM
O=C1CCCC2=C3CCCN4CCC[C@@H](CN12)[C@@H]34 | > 40 µM | > 40 µM | > 40 µM | – | > 40 µM
O=C1CCC[C@@H]2[C@H]3CCCN4CCC[C@@H](CN12)[C@@H]34 [MATRINE] | > 40 µM | > 40 µM | > 40 µM | – | > 40 µM
O=C1C=CC[C@@H]2[C@H]3CCCN4CCC[C@@H](CN12)[C@@H]34 [SOPHOCARPINE] | > 40 µM | > 40 µM | > 40 µM | – | > 40 µM
O=C1CCC[C@@H]2[C@H]3CCCN4CCC[C@H](CN12)[C@@H]34 [SOPHORIDINE] | > 80 µM | > 80 µM | > 80 µM | > 80 µM | > 80 µM
